In article doi:10.1101/2021.06.28.449968v1 (biorxiv, 2021):

Molecular target: T1, full-length Abl1 NanoLuc fusion (Abl1-Nluc, NLuc-Abl1) (Homo sapiens, UniProt P00519)
T1 construct: full-length Abl1 fused to the C-terminus of NanoLuc luciferase (Promega plasmid), transiently expressed in HEK293T cells
Experiment: NanoBRET tracer isotherm in live HEK293T cells
Assay type: cell-based
Conditions: labelled compound; […] h; ATP site; read-out: Kd,app
Description: NanoBRET tracer isotherm in live HEK293T cells on full-length Abl1 NanoLuc fusion (Abl1-Nluc, NLuc-Abl1) | tracer probe (K-4, Promega), suitable for all mutants

T1 sequence (P00519 whole entry, the tested form may be a part): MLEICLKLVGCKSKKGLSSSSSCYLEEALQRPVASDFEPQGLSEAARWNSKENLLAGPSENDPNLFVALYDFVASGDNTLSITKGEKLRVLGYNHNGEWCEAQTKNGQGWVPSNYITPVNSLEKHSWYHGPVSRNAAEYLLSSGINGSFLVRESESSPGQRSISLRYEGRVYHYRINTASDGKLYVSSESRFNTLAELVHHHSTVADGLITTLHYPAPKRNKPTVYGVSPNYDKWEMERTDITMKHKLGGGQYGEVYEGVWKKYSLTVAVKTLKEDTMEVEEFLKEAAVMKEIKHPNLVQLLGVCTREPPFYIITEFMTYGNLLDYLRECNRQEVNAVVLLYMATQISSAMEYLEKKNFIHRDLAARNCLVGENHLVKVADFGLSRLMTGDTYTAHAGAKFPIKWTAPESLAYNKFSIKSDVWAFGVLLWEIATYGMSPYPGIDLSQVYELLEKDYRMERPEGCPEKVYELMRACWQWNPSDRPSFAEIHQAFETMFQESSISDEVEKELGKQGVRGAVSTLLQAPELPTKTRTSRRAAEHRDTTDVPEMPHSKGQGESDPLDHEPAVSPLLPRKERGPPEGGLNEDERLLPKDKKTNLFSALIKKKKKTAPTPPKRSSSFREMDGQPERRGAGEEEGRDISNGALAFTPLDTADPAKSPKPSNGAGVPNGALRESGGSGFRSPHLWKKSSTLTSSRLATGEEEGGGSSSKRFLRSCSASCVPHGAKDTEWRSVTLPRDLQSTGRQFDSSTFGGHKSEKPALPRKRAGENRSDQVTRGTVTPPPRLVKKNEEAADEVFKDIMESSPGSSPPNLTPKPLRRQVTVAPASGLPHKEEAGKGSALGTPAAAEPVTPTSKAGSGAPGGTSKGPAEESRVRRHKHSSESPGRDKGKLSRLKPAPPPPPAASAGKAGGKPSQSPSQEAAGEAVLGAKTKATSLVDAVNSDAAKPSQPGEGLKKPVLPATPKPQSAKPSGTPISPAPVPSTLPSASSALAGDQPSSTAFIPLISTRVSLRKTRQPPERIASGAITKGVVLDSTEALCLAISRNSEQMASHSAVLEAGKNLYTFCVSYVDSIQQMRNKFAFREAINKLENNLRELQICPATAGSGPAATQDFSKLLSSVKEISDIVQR

In the case of NanoBRET tracer K-4 (Promega), the Kd is reported as 38.6 nM.
